Tests used:
p100/p120 [1] = assay: p100/p120 electrophoretic mobility (band shift) by immunoblotting, MDCK I cells; type: cell-based; conditions: MDCK I; for reversal of PDB-induced p100/p120 band shift: 200 nM PDB 30 minutes, then 2.5 μM inhibitor added in presence of PDB; for block of PDB-induced p100/p120 band shift: pretreatment 5 minutes (bisindolylmaleimide I or V 2.5 μM, Ro 31-8425 5 μM), then 200 nM PDB 30 minutes
Experimental: The migration of the cellular proteins p100 and p120 during electrophoresis is increased following PDB-treatment of MDCK I cells. PDB (phorbol-12,13-dibutyrate) is a pharmacological activator of protein kinase C. MDCK I cells are a kidney derived epithelial cell line, with particularly well developed junctional complexes. Cells treated for 30 minutes with either 200 nM PDB (+) or vehicle (−) were then lysed into Laemmli sample buffer, and separated by electrophoresis using 6% acrylamide gels. Proteins were transferred to nitrocellulose and probed with antibodies to p100/p120, and then reprobed with E-cadherin and paxillin antibodies.
(§1) MDCK strain I and II cells were provided by Barry Gumbiner (memorial Sloan-Kettering Cancer Center, NY). LLC-PK1 and Caco-2 cells were obtained from the European Collection of Animal Cell Cultures. All cells were maintained at 37° C. under 5% CO2 in humidified air. MDCK strain I and II cells were maintained in MEM containing 10% FCS, 100 U/ml penicillin, 100 μg/ml streptomycin and 2 mM L-glutamine. Caco-2 cells were maintained in MEM containing 15% FCS, 1% non-essential amino acids and 1 μg/ml bovine insulin (Sigma I-6634). LLC-PK1 cells were grown in M199 (Gibco), 10% FCS, 100 U/ml penicillin, 100 μg/ml streptomycin and 2 mM L-glutamine. For whole cell lysate analysis, 10^5 cells were plated on 6.5 mm diameter, 0.4 μm, polycarbonate Transwell filters from Costar, in 0.25 ml of medium. The basolateral chamber contained 0.75 ml of medium. For immunoprecipitation, 5×10^5 cells were plated onto 24 mm Transwell filters, in 2 ml of medium, with 3 ml of medium in the lower chamber. Cells were used 4-7 days after plating. Tissue culture materials were from Gibco. Porcine brain endothelial cells were isolated and grown by modifications of a previously published procedure (Rubin et al., 1991). Brain capillary fragments were plated on dishes coated with rat tail collagen and human fibronectin. The cultures were fed every other day with growth medium composed of 50% astrocyte-conditioned medium and 50% Dulbecco's Modified Eagle Medium containing 10% plasma-derived serum, 125 μg/ml heparin, antibiotics and glutamine. They were incubated in a humidified atmosphere of 10% CO2 at 37° C. When the endothelial cells were approximately 50% confluent (after 4-6 days in culture), they were trypsinized and plated onto collagen-coated polycarbonate Transwell filters (6.5 mm diameter, 0.4 μm pore size, tissue culture treated, Costar Corp, Cambridge, Mass., U.S.A.) in the same medium (250 μl apically, 750 μl basolaterally). After 2-3 days on filters, the medium was switched to a 1:1 mixture of astrocyte-conditioned medium and a Dulbecco's Modified Eagle Medium-based, chemically defined medium (‘N2’, Rubin et al., 1991; Bottenstein and Sato, 1979). The final concentration of plasma-derived serum was 5%. Human umbilical vein endothelial cells were from Clonetics.
(§2) Whole cell lysates were prepared by rapidly replacing the culture medium in 6.5 mm with hot Laemmli sample buffer, followed by heating at 100° C. for 5 minutes. Immunoprecipitations were carried out at 4° C. Confluent monolayers of cells were washed rapidly with ice cold PBS (containing 0.9 mM CaCl2 and 0.5 mM MgCl2) before addition of 0.5 ml of the appropriate buffer. The filters were then gently scraped, and the lysate was removed and centrifuged at 14000× g. The supernatant was precleared with 10% (w/v) protein A-Sepharose in lysis buffer for 30-60 minutes. Appropriate primary antibodies were added to the lysate, and after 2-3 hours the immunecomplex was isolated, using rabbit anti-mouse secondary antibodies (Jackson Immunoresearch Labs Inc., West Grove, Pa.) and protein A-Sepharose. The beads were washed fives times with lysis buffer, and the bound protein was solubilized in SDS-sample buffer, followed by heating at 100° C. for 5 minutes.
Cell extracts or immunoprecipitates in SDS sample buffer were resolved by SDS-PAGE. […]

p100/p120 [2] = assay: p100/p120 electrophoretic mobility, primary pig brain endothelial cells (PBECs); type: cell-based; conditions: for mobility of p120 and p100: LPA 10 μM
Experimental: (§3) Cells were treated with or without 200 nM PDB for 30 minutes, lysed into Laemmli sample buffer, separated by electrophoresis and analysed by immunoblotting with antibodies recognising p100 and p120.
as §1
as §2, with “A-Sepharose.” for “A-Sepharose. The beads were washed fives times with lysis buffer, and the bound protein was solubilized in SDS-sample buffer, followed by heating at 100° C. for 5 minutes.”

[3] = system: pig brain endothelial cell tight junctions; assay: transcellular electrical resistance (TER) of pig brain endothelial cell cultures; type: cell-based
Experimental: After 2 minutes the Transwells were returned to control medium and transcellular electrical resistance measurements were taken every minute for the following 18 minutes.
as §1
Transcellular electrical resistance (TER) measurements were taken with a pair of fixed, current-passing, voltage measuring electrodes (World Precision Instruments, Stevenage, Hertfordshire, U.K.). TER values are expressed in Ωcm^2 and were corrected for the resistance of cell-free filters.

[4] = system: brain endothelial cells tight junction; assay: tight junction permeability in pig brain endothelial cells; type: cell-based; conditions: results not shown
p100/p120 [5] = assay: p100/p120 electrophoretic mobility, human umbilical vein endothelial cells (HUVECs); type: cell-based; conditions: HUVEC
p100/p120 [6] = assay: p100/p120 electrophoretic mobility (band shift) by immunoblotting, MDCK I cells; type: cell-based
[7] = system: brain endothelial cells tight junction; conditions: pig brain endothelial cells (Schulze et al.); cited from earlier work
p100/p120 [8] = assay: p100/p120 electrophoretic mobility, human umbilical vein endothelial cells (HUVECs); type: cell-based; conditions: HUVEC; for mobility of p100 and p120, blocker alone: 10 μM blocker alone
Experimental: as §3
Human umbilical vein endothelial cells were incubated with histamine (His), pyrilamine (Pyr) or cimetidine (Cim) alone or in combination. As indicated, cells were preincubated in the absence or presence of cimetidine (10 μM) or pyrilamine (10 μM) for 10 minutes and then treated with or without histamine (10 μM) for a further 10 minutes. The cells were extracted and protein analysed by gel electrophoresis and immunoblotting. […] In the following examples, increase mobility of p100/p120 means decreased phosphorylation.
as §2
Cell extracts or immunoprecipitates in SDS sample buffer were resolved by SDS-PAGE. The slab gels were then equilibrated in buffer comprising; 48 mM Tris, 39 mM glycine, 20% methanol and 0.03% SDS. Proteins were transferred to nitrocellulose filters (Hybond ECL; Amersham), which were Ponceau S stained and then blocked for 2 hours at 37° C. with 1% BSA in PBS containing 0.05% Tween-20. Filters were then probed with p120 antibody, at a dilution of 1:2500. After washing, filters were incubated with horseradish peroxidase conjugated anti-mouse antibody (Amersham), at a dilution of 1:5000. The filters were then extensively washed in PBS/0.5% Tween-20, and immunoreactive bands were detected by enhanced chemiluminescence (Amersham) following the manufacturers instructions.

[9] = 15 minutes, histamine 10 μM, LPA 10 μM, ATP 100 μM

Compound: CN(C)CCCn1cc(C2=C(c3c[nH]c4ccccc34)C(=O)NC2=O)c2ccccc21 [bisindolylmaleimide I]
- reversal of PDB-induced p100/p120 band shift (p100/p120 [1]): can be reversed
- block of PDB-induced p100/p120 band shift (p100/p120 [1]): completely abolished
- prevention of sorbitol-induced increase in p100/p120 mobility (p100/p120 [2]; 2.5 μM bisindolylmaleimide 5 minutes pretreatment, then 0.3M sorbitol): not prevented
- block of LPA-induced p100/p120 mobility increase (p100/p120 [2]; bisindolylmaleimide 2.5 μM preincubation 10 minutes, then LPA 10 μM 70 minutes): not blocked
- transcellular electrical resistance after sorbitol following bisindolylmaleimide pre-incubation ([3]; 2.5 μM bisindolylmaleimide pre-incubation, then 0.3M sorbitol 10 minutes, from 643 before treatment): 93 Ωcm^2
- block of LPA-induced increase in tight junction permeability [4]: did not block
- block of phorbol dibutyrate effect on p100/p120 mobility (p100/p120 [5]; bisindolylmaleimide 2 μM preincubation 15 minutes, then PDB 200 nM 5 minutes): blocked
- block of histamine effect on p100/p120 mobility (p100/p120 [5]; bisindolylmaleimide 2 μM preincubation 15 minutes, then histamine 10 μM 5 minutes): not so strongly affected

Compound: OC[C@@H](O)[C@@H](O)[C@H](O)[C@H](O)CO [mannitol]
- transcellular electrical resistance ([3]; 0.2-0.4 M mannitol, up to 6 hours): causes a drop
- reversibility of drop in transcellular electrical resistance ([3]; 0.4M or 0.8M mannitol 2 minutes, then control medium 18 minutes): fully reversible
- time at which drop in transcellular electrical resistance is clearly seen ([3]; 0.8M mannitol, recorded over 2 minutes): ≤ 20 s

Compound: CCCOc1ccc2c(c1)c1c3c(c4c5ccccc5n5c4c1n2[C@H]1C[C@](O)(C(=O)OC)[C@]5(C)O1)CNC3=O [KT 5926]
- effect on p100/p120 mobility (p100/p120 [6]; 1 μM KT 5926): also induced a p100/p120 band shift

Compound: CCCCCCCC(=O)OCC(CO)OC(=O)CCCCCCC (stereo not shown) [DiC8, 1,2-dioctanoylglycerol]
- effect on p100/p120 mobility (p100/p120 [6]; 0.5 mM DiC8, 10 minutes): induces a p100/p120 mobility shift

Compound: NCCc1c[nH]cn1 [histamine]
- mobility of p120 and p100 (p100/p120 [5]; 5 minutes, histamine 10 μM, PDB 200 nM): increased mobility
- mobility of p100 and p120 (p100/p120 [5]; [9]): increase in the mobility
- mobility of p100 and p120 (p100/p120 [5]; histamine 10 μM, 10 minutes): induced an increased mobility
- mobility of p100 and p120, time course (p100/p120 [5]; histamine, times indicated (FIG. 11)): rapid increase in the mobility

Compound: Nc1ncnc2c1ncn2[C@@H]1O[C@H](COP(=O)(O)OP(=O)(O)OP(=O)(O)O)[C@@H](O)[C@H]1O [ATP]
- mobility of p100 and p120 (p100/p120 [5]; [9]): increase in the mobility

Compound: OC[C@@H](O)[C@@H](O)[C@H](O)[C@@H](O)CO [sorbitol]
- transcellular electrical resistance after treatment ([3]; 0.3M sorbitol, 10 minutes, from 677 before treatment): 73 Ωcm^2

Compound: lysophosphatidic acid [LPA]
- mobility of p120 and p100 (p100/p120 [2]; pig brain endothelial cells, 30 minutes): increased mobility
- mobility of p120 and p100 (p100/p120 [2]; pig brain endothelial cells, 70 minutes): increased mobility
- onset of LPA effect on p100/p120 (p100/p120 [2]; pig brain endothelial cells, further experiments): within a few minutes
- mobility of p100 and p120 (p100/p120 [5]; [9]): increase in the mobility
- tight junction permeability [7]: increases tight junction permeability

Compound: CN[C@@H]1C[C@H]2O[C@@](C)([C@@H]1OC)n1c3ccccc3c3c4c(c5c6ccccc6n2c5c31)C(=O)NC4 [staurosporine]
- effect on p100/p120 mobility (p100/p120 [6]; 100 nM staurosporine, 60 minutes): induced a p100/p120 band shift

Compound: C=C1[C@@H](O)[C@@H]2O[C@]3(CC[C@H](/C=C/[C@@H](C)[C@@H]4CC(C)=C[C@@]5(O[C@H](C[C@@](C)(O)C(=O)O)CC[C@H]5O)O4)O3)CC[C@H]2O[C@@H]1[C@@H](O)C[C@H](C)[C@H]1O[C@@]2(CCCCO2)CC[C@H]1C [okadaic acid]
- effect on p100/p120 mobility (p100/p120 [6]; 1 μM okadaic acid, 60 minutes): upward band shift

Compound: CCCC(=O)O[C@@H]1[C@@H](C)[C@@]2(O)[C@@H](C=C(CO)C[C@@]3(O)C(=O)C(C)=C[C@@H]23)[C@@H]2C(C)(C)[C@]12OC(=O)CCC [4α-PDB]
- effect on p100/p120 mobility (p100/p120 [1]; 200 nM 4α-PDB, 30 minutes): no effect

Compound: CN/C(=N/CCSCc1nc[nH]c1C)NC#N [cimetidine]
- mobility of p100 and p120, blocker alone (p100/p120 [8]): no effect

Compound: Cn1cc(C2=C(c3c4n(c5ccccc35)CCC(CN)C4)C(=O)NC2=O)c2ccccc21 (stereo not shown) [Ro 31-8425]
- block of PDB-induced p100/p120 band shift (p100/p120 [1]): completely abolished

Compound: COC[C@@H]([C@H](O)[C@H](O)C(=O)NCC[C@H](C)c1nc(/C=C/C[C@@H]2O[C@]3(C[C@@H](O)[C@@H]2C)O[C@H]([C@H](C[C@H](O)[C@H](C)[C@H](O)[C@H](C)/C=C(C)/C(C)=C/C=C/C(C)=C\C#N)OC)[C@H](OP(=O)(O)O)C3(C)C)co1)N(C)C [calyculin A]
- effect on p100/p120 mobility (p100/p120 [6]; 100 nM calyculin A, 60 minutes): upward band shift

Compound: COc1ccc(CN(CCN(C)C)c2ccccn2)cc1 [pyrilamine]
- mobility of p100 and p120, blocker alone (p100/p120 [8]): no effect
- block of histamine effect on p100/p120 mobility (p100/p120 [8]; 10 μM preincubation 10 minutes, then histamine 10 μM 10 minutes): blocked the histamine effect

Compound: CN1C(=O)C(c2c[nH]c3ccccc23)=C(c2c[nH]c3ccccc23)C1=O [bisindolylmaleimide V]
- reversal of PDB-induced p100/p120 band shift (p100/p120 [1]): did not reverse
- block of PDB-induced p100/p120 band shift (p100/p120 [1]): unable to block

— patent publication US6407058B1, “Modifying the permeability of physiological barriers” (Eisai Co., Limited, priority 1996, dated 2002)
